{"source": "patent US20160143884A1", "about": "“USE OF TETRAHYDROINDAZOLYLBENZAMIDE AND TETRAHYDROINDOLYLBENZAMIDE DERIVATIVES FOR THE TREATMENT OF HUMAN IMMUNODEFICIENCY VIRUS (HIV) AND ACQUIRED IMMUNE DEFICIENCY SYNDROME (AIDS)” (Esanex, Inc., priority 2014, published 2016)", "key": {"[1]": {"test_system": "HIV-1Ba-L", "test": "Anti-HIV efficacy evaluation in fresh human PBMCs (reverse transcriptase activity readout)", "assay_type": "cell-based", "procedure": "Anti-HIV Efficacy Evaluation in Fresh Human PBMCs Assay Protocol:\nFresh human PBMCs, seronegative for HIV and HBV, are isolated from screened donors (Biological Specialty Corporation, Colmar, Pa.). Cells are pelleted/washed 2-3 times by low speed centrifugation and re-suspension in PBS to remove contaminating platelets. […] Banded PBMCs are gently aspirated from the resulting interface and subsequently washed 2× with PBS by low speed centrifugation. […] The cells are allowed to incubate for 48-72 hours at 37° C. […] IL-2 is included in the culture medium to maintain the cell division initiated by the PHA mitogenic stimulation. PBMCs are maintained in this medium at a concentration of 1-2×10^6 cells/mL with biweekly medium changes until used in the assay protocol. Cells are kept in culture for a maximum of two weeks before being deemed too old for use in assays and discarded. MDMs are depleted from the culture as the result of adherence to the tissue culture flask.\nFor the standard PBMC assay, PHA stimulated cells from at least two normal donors are pooled (mixed together), diluted in fresh medium to a final concentration of 1×10^6 cells/mL, and plated in the interior wells of a 96 well round bottom microplate at 50 uL/well (5×10^4 cells/well) in a standard format developed by the Infectious Disease Research department of Southern Research Institute. Pooling (mixing) of mononuclear cells from more than one donor is used to minimize the variability observed between individual donors, which results from quantitative and qualitative differences in HIV infection and overall response to the PHA and IL-2 of primary lymphocyte populations. Each plate contains virus/cell control wells (cells plus virus), experimental wells (drug plus cells plus virus) and compound control wells (drug plus media without cells, necessary for MTS monitoring of cytotoxicity). […] Therefore, infected wells are used in the assessment of both antiviral activity and cytotoxicity. Test drug dilutions are prepared at a 2× concentration in microtiter tubes and 100 μL of each concentration (nine total concentrations) are placed in appropriate wells using the standard format. 50 μL of a predetermined dilution of virus stock is placed in each test well (final MOI˜=0.1). The PBMC cultures are maintained for seven days following infection at 37° C., 5% CO2. After this period, cell-free supernatant samples are collected for analysis of reverse transcriptase activity and/or p24 antigen content. Following removal of supernatant samples, compound cytotoxicity is measured by addition of MTS to the plates for determination of cell viability. Wells are also examined microscopically and any abnormalities are noted.\nReverse Transcriptase Activity Assay Protocol:\nTritiated thymidine triphosphate (^3H-TTP, 80 Ci/mmol, NEN) is received in 1:1 dH2O:Ethanol at 1 mCi/mL. Poly rA:oligo dT template:primer (GE Healthcare) is prepared as a stock solution by combining 150 μL poly rA (20 mg/mL) with 0.5 mL oligo dT (20 units/mL) and 5.35 mL sterile dH2O followed by aliquoting (1.0 mL) and storage at −20° C. The RT reaction buffer is prepared fresh on a daily basis and consists of 125 μL 1.0 M EGTA, 125 μL dH2O, 125 μL 20% Triton X100, 50 μL 1.0 M Tris (pH 7.4), 50 μL 1.0 M DTT, and 40 μL 1.0 M MgCl2. The final reaction mixture is prepared by combining 1 part ^3H-TTP, 4 parts dH2O, 2.5 parts poly rA:oligo dT stock and 2.5 parts reaction buffer. Ten microliters of this reaction mixture is placed in a round bottom microtiter plate and 15 μL of virus containing supernatant is added and mixed. The plate is incubated at 37° C. for 60 minutes. Following incubation, the reaction volume is spotted onto DE81 filter-mats (Wallac), washed 5 times for 5 minutes each in a 5% sodium phosphate buffer or 2×SSC (Life Technologies)."}, "[2]": {"test": "MTS staining for PBMC viability to measure cytotoxicity", "assay_type": "cell-based, human", "details": "human, PBMCs", "from_the_text": "(§1) Pooling (mixing) of mononuclear cells from more than one donor is used to minimize the variability observed between individual donors, which results from quantitative and qualitative differences in HIV infection and overall response to the PHA and IL-2 of primary lymphocyte populations. Each plate contains virus/cell control wells (cells plus virus), experimental wells (drug plus cells plus virus) and compound control wells (drug plus media without cells, necessary for MTS monitoring of cytotoxicity). […] Therefore, infected wells are used in the assessment of both antiviral activity and cytotoxicity. […] The PBMC cultures are maintained for seven days following infection at 37° C., 5% CO2. After this period, cell-free supernatant samples are collected for analysis of reverse transcriptase activity and/or p24 antigen content. Following removal of supernatant samples, compound cytotoxicity is measured by addition of MTS to the plates for determination of cell viability. Wells are also examined microscopically and any abnormalities are noted. MTS Staining for PBMC Viability to Measure Cytotoxicity Protocol: At assay termination, assay plates are stained with the soluble tetrazolium-based dye MTS (CellTiter 96 Reagent, Promega) to determine cell viability and quantify compound toxicity. The mitochondrial enzymes of metabolically active cells metabolize MTS to yield a soluble formazan product. This allows the rapid quantitative analysis of cell viability and compound cytotoxicity. […] At termination of the assay, 20 uL of MTS reagent is added per well. The microtiter plates are then incubated 4-6 hrs at 37° C. The incubation intervals were chosen based on empirically determined times for optimal dye reduction. Adhesive plate sealers are used in place of the lids, the sealed plate is inverted several times to mix the soluble formazan product and the plate is read spectrophotometrically at 490/650 nm with a Molecular Devices Vmax or SpectraMaxPlus plate reader."}, "[3]": {"test_system": "PBMCs", "test": "MTS staining for PBMC viability to measure cytotoxicity", "assay_type": "cell-based, human", "from_the_text": "as §1"}}}
{"smiles": "CC1(C)CC(=O)c2c(C(F)(F)F)nn(-c3ccc(C(N)=O)c(N[C@H]4CC[C@H](O)CC4)c3)c2C1", "note": "[Compound 9, 4-(6,6-Dimethyl-4-oxo-3-trifluoromethyl-4,5,6,7-tetrahydro-indazol-1-yl)-2-(trans-4-hydroxy-cyclohexylamino)-benzamide]", "values": [{"measurement": "IC 95% (95% inhibition of virus replication)", "setting": "[1]; HIV-1Ba-L in PBMCs", "result": 11, "unit": "nM"}, {"measurement": "Selectivity Index TI (TC50/IC50)", "setting": "[1]; HIV-1Ba-L in PBMCs, 50%", "result": 1.5}, {"measurement": "Selectivity index (TI) 90%", "setting": "[1]; HIV-1Ba-L in PBMCs, TC90/IC90", "result": ">22.1"}, {"measurement": "Selectivity index (TI) 95%", "setting": "[1]; HIV-1Ba-L in PBMCs, TC95/IC95", "result": ">18.2"}, {"measurement": "IC50", "setting": "[1]; Human immunodeficiency virus 1, PBMC, 168 h, read-out: Antiviral Activity IC50 (50% inhibition of virus replication), HIV-1Ba-L in PBMCs, seven days", "result": 20, "unit": "nM"}, {"measurement": "IC90", "setting": "[1]; Human immunodeficiency virus 1, PBMC, read-out: IC 90% (90% inhibition of virus replication)", "result": 90, "unit": "nM"}, {"measurement": "CC50 at 7 days", "setting": "[2]", "result": 30, "unit": "nM"}, {"measurement": "TC 90% (90% cytotoxicity)", "setting": "[3]", "result": ">2000", "unit": "nM"}, {"measurement": "TC 95% (95% cytotoxicity)", "setting": "[3]", "result": ">2000", "unit": "nM"}]}
